What all share (format): biochemical
In one assay the target is T1, JAK3 (Homo sapiens, UniProt P52333).
T1 sequence (P52333 1-1124): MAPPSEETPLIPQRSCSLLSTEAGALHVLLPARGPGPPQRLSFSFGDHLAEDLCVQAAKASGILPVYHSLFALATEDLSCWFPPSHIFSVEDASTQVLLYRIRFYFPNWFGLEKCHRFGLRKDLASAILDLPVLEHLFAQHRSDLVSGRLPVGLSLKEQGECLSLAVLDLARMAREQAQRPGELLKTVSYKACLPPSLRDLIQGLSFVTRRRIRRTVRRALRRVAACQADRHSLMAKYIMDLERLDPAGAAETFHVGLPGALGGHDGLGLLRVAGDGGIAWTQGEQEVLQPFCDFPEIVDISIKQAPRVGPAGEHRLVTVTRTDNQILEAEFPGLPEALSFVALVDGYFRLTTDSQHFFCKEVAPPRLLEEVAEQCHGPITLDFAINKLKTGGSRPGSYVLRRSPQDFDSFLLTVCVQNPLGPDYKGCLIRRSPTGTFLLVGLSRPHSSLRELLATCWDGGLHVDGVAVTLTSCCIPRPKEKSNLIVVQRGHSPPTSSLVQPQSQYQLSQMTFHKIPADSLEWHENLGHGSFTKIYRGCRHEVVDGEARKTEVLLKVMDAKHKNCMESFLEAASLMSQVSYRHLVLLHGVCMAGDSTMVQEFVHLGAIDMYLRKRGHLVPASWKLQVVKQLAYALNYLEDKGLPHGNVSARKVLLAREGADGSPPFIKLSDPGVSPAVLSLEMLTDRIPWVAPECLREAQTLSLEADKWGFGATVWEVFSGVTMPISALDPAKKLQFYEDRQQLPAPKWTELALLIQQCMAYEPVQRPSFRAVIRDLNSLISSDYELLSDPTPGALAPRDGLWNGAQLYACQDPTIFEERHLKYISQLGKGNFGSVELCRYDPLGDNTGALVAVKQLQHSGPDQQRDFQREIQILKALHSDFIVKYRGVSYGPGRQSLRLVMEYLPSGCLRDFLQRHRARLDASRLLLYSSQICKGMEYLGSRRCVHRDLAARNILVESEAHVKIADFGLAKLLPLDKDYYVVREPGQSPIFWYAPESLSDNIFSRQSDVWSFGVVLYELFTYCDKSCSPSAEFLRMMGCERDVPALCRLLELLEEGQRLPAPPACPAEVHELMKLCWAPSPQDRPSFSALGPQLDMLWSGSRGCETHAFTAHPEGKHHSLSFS
In words: Inhibition of a panel of kinases, in vitro HotSpot kinase assay: JAK3. The following applies: read-out: IC50 JAK3.

In a further assay the target is SRC (Homo sapiens, UniProt P12931). In words: Inhibition of a panel of kinases, in vitro HotSpot kinase assay: SRC. Here is the method: (§1) The degree of inhibition of a panel of kinases is determined using the in vitro HotSpot kinase assay (purified enzymes, ^33P-ATP, an appropriate substrate and 1 μM ATP).
SRC, sequence (P12931 whole entry): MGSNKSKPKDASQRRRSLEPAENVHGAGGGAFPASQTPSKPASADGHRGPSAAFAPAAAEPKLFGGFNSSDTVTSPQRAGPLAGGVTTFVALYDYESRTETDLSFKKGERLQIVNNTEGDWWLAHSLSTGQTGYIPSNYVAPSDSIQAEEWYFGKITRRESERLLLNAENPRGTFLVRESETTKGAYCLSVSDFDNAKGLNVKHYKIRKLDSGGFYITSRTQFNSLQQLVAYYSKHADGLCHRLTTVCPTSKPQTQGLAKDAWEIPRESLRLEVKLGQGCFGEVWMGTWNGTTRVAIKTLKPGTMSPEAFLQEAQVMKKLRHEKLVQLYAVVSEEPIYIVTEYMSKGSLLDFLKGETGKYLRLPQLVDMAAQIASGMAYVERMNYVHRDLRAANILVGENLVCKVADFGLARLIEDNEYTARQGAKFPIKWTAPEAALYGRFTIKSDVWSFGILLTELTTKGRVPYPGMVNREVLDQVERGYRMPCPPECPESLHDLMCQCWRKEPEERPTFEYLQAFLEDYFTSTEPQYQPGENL
The next assay addresses T2, ITK (Homo sapiens, UniProt Q08881).
T2 sequence (Q08881 1-620): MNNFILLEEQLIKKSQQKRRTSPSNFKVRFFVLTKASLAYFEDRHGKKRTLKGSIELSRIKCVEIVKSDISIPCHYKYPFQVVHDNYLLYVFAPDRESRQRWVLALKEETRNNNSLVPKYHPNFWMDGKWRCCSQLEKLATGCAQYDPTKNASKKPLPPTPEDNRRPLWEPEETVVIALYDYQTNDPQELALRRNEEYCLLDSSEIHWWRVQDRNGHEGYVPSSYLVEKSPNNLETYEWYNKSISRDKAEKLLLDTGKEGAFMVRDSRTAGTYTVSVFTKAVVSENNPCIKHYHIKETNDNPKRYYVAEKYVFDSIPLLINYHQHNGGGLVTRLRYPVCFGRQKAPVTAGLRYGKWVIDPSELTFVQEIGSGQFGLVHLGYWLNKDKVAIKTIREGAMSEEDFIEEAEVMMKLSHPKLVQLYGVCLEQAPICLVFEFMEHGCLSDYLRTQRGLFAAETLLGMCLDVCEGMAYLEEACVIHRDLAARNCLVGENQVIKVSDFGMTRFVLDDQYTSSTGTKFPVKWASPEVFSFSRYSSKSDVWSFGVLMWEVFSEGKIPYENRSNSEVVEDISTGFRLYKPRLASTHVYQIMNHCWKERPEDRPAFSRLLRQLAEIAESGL
Put plainly: Inhibition of a panel of kinases, in vitro HotSpot kinase assay: ITK. The procedure:
as §1

For another assay, the target named is EGFR (Homo sapiens, UniProt P00533). Put plainly: Inhibition of a panel of kinases, in vitro HotSpot kinase assay: EGFR. Here is the method:
as §1

The next assay addresses LCK (Homo sapiens, UniProt P06239). In words: Inhibition of a panel of kinases, in vitro HotSpot kinase assay: LCK. The following applies: read-out: IC50 LCK.
[1] abbreviates: Table 13, A compounds, 1 μM ATP.

Read-outs that look alike come from different tables or passages of the source.

LCK, sequence (P06239 whole entry): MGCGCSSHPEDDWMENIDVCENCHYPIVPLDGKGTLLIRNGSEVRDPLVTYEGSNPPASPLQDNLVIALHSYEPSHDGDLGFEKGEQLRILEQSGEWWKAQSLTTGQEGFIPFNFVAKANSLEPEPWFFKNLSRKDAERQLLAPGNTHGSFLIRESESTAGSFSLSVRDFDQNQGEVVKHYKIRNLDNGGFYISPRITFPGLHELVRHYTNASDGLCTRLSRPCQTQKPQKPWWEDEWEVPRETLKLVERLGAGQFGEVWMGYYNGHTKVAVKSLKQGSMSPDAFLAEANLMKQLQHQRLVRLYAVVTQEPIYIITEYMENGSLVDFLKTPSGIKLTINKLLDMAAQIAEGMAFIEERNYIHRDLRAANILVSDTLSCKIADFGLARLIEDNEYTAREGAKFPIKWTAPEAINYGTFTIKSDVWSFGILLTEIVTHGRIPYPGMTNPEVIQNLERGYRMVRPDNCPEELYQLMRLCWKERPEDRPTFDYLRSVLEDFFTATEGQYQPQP
EGFR, sequence (P00533 25-1210): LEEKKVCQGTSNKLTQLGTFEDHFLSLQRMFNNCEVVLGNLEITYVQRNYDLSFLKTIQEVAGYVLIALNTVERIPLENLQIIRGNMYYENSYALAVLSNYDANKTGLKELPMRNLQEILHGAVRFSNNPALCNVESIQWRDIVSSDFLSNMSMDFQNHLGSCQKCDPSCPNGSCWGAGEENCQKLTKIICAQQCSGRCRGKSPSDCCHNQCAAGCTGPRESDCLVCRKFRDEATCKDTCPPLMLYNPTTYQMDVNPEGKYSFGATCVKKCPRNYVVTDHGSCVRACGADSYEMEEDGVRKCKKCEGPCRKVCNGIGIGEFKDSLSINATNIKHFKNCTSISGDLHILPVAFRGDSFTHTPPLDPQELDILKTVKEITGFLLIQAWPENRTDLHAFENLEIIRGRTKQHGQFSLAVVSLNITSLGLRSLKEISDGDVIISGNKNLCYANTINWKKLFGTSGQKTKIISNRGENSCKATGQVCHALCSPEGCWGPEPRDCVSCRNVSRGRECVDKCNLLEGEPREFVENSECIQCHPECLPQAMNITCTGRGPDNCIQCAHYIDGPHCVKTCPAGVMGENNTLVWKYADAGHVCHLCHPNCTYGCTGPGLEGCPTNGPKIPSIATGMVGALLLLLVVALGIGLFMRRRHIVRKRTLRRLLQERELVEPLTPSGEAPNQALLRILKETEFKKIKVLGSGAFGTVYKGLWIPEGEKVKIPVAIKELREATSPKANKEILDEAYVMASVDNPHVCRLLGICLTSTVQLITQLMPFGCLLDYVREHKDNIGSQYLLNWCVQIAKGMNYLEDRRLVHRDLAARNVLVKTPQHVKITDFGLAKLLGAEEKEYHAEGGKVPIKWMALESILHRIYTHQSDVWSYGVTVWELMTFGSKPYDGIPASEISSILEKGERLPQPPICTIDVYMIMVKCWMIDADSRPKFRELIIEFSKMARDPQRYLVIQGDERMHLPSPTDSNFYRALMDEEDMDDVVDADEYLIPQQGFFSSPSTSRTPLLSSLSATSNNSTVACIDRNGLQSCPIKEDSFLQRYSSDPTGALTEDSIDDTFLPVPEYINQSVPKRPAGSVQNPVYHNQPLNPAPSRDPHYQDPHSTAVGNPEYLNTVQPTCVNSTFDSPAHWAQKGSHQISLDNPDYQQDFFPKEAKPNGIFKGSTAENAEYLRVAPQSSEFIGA

For `C[C@@H]1[C@H](NC(=O)c2ccc(C3CC3)cc2F)CCCN1c1cnc(C(N)=O)c(Nc2ccc(S(=O)(=O)N3CCCC3)cc2)n1` [Example A-175, 5-[(2R,3R)-3-(4-cyclopropyl-2-fluorobenzamido)-2-methylpiperidin-1-yl]-3-{[4-(pyrrolidine-1-sulfonyl)phenyl]amino}pyr-azine-2-carboxamide], the half-maximal inhibitory concentration (IC50) was greater than 10000 nM at JAK3 (setting [1]); greater than 10000 nM against SRC (setting [1]); greater than 10000 nM at ITK (setting [1]); 1000 to 10000 nM against EGFR (setting [1]); greater than 10000 nM at LCK (setting [1]).

On to `Cn1cc(Nc2nc(N3CCCC(C)(NC(=O)c4ccc(C5CC5)cc4)C3)cnc2C(N)=O)cn1` (centres unmarked) [Example E-150, 5-(3-(4-cyclopropylbenzamido)-3-methylpiperidin-1-yl)-3-((1-methyl-1H-pyrazol-4-yl)amino)pyrazine-2-carboxamide], for which the IC50 on JAK3 (E compounds, Table 17) was 1000 to 10000 nM; on SRC (E compounds, Table 17), 1000 to 10000 nM; against ITK (E compounds, Table 17), greater than 10000 nM; against EGFR (E compounds, Table 17), greater than 10000 nM; at LCK (E compounds, Table 17) it was 1000 to 10000 nM.

As to `C[C@@H]1[C@H](NC(=O)c2ccc(C3CC3)cc2F)CCCN1c1cnc(C(N)=O)c(Nc2nc3c(s2)CN(C)CC3)n1` [Example A-108, 5-[(2R,3R)-3-(4-cyclopropyl-2-fluorobenzamido)-2-methylpiperidin-1-yl]-3-({5-methyl-4H,5H,6H,7H-[1,3]thiazolo[5,4-c]pyridin-2-yl}amino)pyrazine-2-carboxamide], the IC50 at JAK3 (setting [1]), against SRC (setting [1]), at ITK (setting [1]), against EGFR (setting [1]) and at LCK (setting [1]) was greater than 10000 nM in each case.

With `Cc1cc(Nc2nc(N3CCC[C@@H](n4ccc5cc(C6CC6)ccc5c4=O)C3)cnc2C(N)=O)sn1` [Example A-107, 5-[(3R)-3-(6-cyclopropyl-1-oxo-1,2-dihydroisoquinolin-2-yl)piperidin-1-yl]-3-[(3-methyl-1,2-thiazol-5-yl)amino]pyrazine-2-carboxamide], the half-inhibitory concentration (IC50) at JAK3 (setting [1]), against SRC (setting [1]), against ITK (setting [1]), at EGFR (setting [1]) and at LCK (setting [1]) was greater than 10000 nM in each case.

Consider `C=CC(=O)N1CC[C@@H](N(C)c2cnc(C(N)=O)c(Nc3cnn(CCOC)c3)n2)C1` [Example E-110, (R)-5-((1-acryloylpyrrolidin-3-yl)(methyl)amino)-3-(1-(2-methoxyethyl)-1H-pyrazol-4-ylamino)pyrazine-2-carboxamide], for which the IC50 on JAK3 (E compounds, Table 17) is less than 10 nM; against SRC (E compounds, Table 17), 100 to 1000 nM; against ITK (E compounds, Table 17) it was no more than 10 nM; against EGFR (E compounds, Table 17), 100 to 1000 nM; on LCK (E compounds, Table 17), 1000 to 10000 nM.

For the compound `C[C@@H]1[C@H](NC(=O)c2ccc(C3CC3)cc2)CCCN1c1cnc(C(N)=O)c(Nc2cnn(CCN(C)C)c2)n1` [Example A-182, 5-[(2R,3R)-3-(4-cyclopropylbenzamido)-2-methylpiperidin-1-yl]-3-({1-[2-(dimethylamino)ethyl]-1H-pyrazol-4-yl}amino)pyrazine-2-carboxamide], the IC50 at JAK3 (setting [1]) is 1000 to 10000 nM; on SRC (setting [1]), 100 to 1000 nM; against ITK (setting [1]), 1000 to 10000 nM; against EGFR (setting [1]), 1000 to 10000 nM; on LCK (setting [1]), 100 to 1000 nM.

As for `C[C@@H]1[C@H](NC(=O)c2ccc(C3CC3)cc2F)CCCN1c1cnc(C(N)=O)c(Nc2cnn(C)c2)n1` [Example A-110, 5-[(2R,3R)-3-(4-cyclopropyl-2-fluorobenzamido)-2-methylpiperidin-1-yl]-3-[(1-methyl-1H-pyrazol-4-yl)amino]pyrazine-2-carboxamide], the IC50 at JAK3 (setting [1]) lay in the range of 1000 to 10000 nM; against SRC (setting [1]), 100 to 1000 nM; against ITK (setting [1]) it was 100 to 1000 nM; against EGFR (setting [1]), 1000 to 10000 nM; at LCK (setting [1]) it was 1000 to 10000 nM.

In the case of `C[C@@H]1[C@H](NC(=O)c2ccc(C3CC3)cc2)CCCN1c1cnc(C(N)=O)c(Nc2ccc(N3CCN(C)C[C@@H]3C)cc2)n1` [Example E-148, 5-((2R,3R)-3-(4-cyclopropylbenzamido)-2-methylpiperidin-1-yl)-3-((4-((S)-2,4-dimethylpiperazin-1-yl)phenyl)amino)pyrazine-2-carboxamide], the IC50 lay within 100 to 1000 nM at JAK3 (E compounds, Table 17); 10 to 100 nM against SRC (E compounds, Table 17); 10 to 100 nM on ITK (E compounds, Table 17); 100 to 1000 nM against EGFR (E compounds, Table 17); 10 to 100 nM on LCK (E compounds, Table 17).

For `CN1CCN(Cc2ccc(Nc3nc(N4CCC[C@@H](n5ccc6cc(C7CC7)ccc6c5=O)C4)cnc3C(N)=O)cc2)CC1` [Example A-111, 5-[(3R)-3-(6-cyclopropyl-1-oxo-1,2-dihydroisoquinolin-2-yl)piperidin-1-yl]-3-({4-[(4-methylpiperazin-1-yl)meth-yl]phenyl}amino)pyrazine-2-carboxamide], the IC50 at JAK3 (setting [1]) lay within 100 to 1000 nM; on SRC (setting [1]), 100 to 1000 nM; against ITK (setting [1]) it was 100 to 1000 nM; against EGFR (setting [1]), 1000 to 10000 nM; at LCK (setting [1]) it was 100 to 1000 nM.

`Cn1cc(Nc2nc(N3C[C@H](NC(=O)c4ccc(C5CC5)cc4)CC(F)(F)C3)cnc2C(N)=O)cn1` [Example A-188, (R)-5-(5-(4-cyclopropylbenzamido)-3,3-difluoropiperidin-1-yl)-3-(1-methyl-1H-pyrazol-4-ylamino)pyrazine-2-carboxamide]: the IC50 was 1000 to 10000 nM at JAK3 (setting [1]); 100 to 1000 nM at SRC (setting [1]); 1000 to 10000 nM against ITK (setting [1]); 1000 to 10000 nM at EGFR (setting [1]); 100 to 1000 nM on LCK (setting [1]).

Consider `C[C@@H]1[C@H](NC(=O)c2ccc(C3CC3)cc2)CCCN1c1cnc(C(N)=O)c(Nc2ccc(N3CCN(C4COC4)C[C@@H]3C)cc2)n1` [Example E-142, 5-((2R,3R)-3-(4-cyclopropylbenzamido)-2-methylpiperidin-1-yl)-3-((4-((S)-2-methyl-4-(oxetan-3-yl)piperazin-1-yl)phenyl)amino)pyrazine-2-carboxamide], for which the half-inhibitory concentration (IC50) at JAK3 (E compounds, Table 17) was in the range of 1000 to 10000 nM; at SRC (E compounds, Table 17), 10 to 100 nM; on ITK (E compounds, Table 17) it was 10 to 100 nM; at EGFR (E compounds, Table 17), 1000 to 10000 nM; on LCK (E compounds, Table 17) it was 10 to 100 nM.

As for `C[C@@H]1[C@H](NC(=O)c2noc(C(C)(C)C)n2)CCCN1c1cnc(C(N)=O)c(Nc2cnn(C)c2)n1` [Example E-149, 5-(tert-butyl)-N-((2R,3R)-1-(5-carbamoyl-6-((1-methyl-1H-pyrazol-4-yl)amino)pyrazin-2-yl)-2-methylpiperidin-3-yl)-1,2,4-oxadiazole-3-carboxamide], the IC50 at JAK3 (E compounds, Table 17) lay in the range of 1000 to 10000 nM; on SRC (E compounds, Table 17) it was 1000 to 10000 nM; against ITK (E compounds, Table 17) it was 1000 to 10000 nM; against EGFR (E compounds, Table 17), 1000 to 10000 nM; at LCK (E compounds, Table 17), 1000 to 10000 nM.

For the compound `C[C@@H]1[C@H](NC(=O)c2ccc(-c3ncco3)cc2)CCCN1c1cnc(C(N)=O)c(Nc2cnn(C)c2)n1` [Example E-154, 3-((1-methyl-1H-pyrazol-4-yl)amino)-5-((2R,3R)-2-methyl-3-(4-(oxazol-2-yl)benzamido)piperidin-1-yl)pyrazine-2-carboxamide], the half-inhibitory concentration (IC50) on JAK3 (E compounds, Table 17) lay in the range of 100 to 1000 nM; against SRC (E compounds, Table 17), 10 to 100 nM; at ITK (E compounds, Table 17) it was 100 to 1000 nM; against EGFR (E compounds, Table 17), 1000 to 10000 nM; on LCK (E compounds, Table 17) it was 10 to 100 nM.

The values are drawn from US20210070748A1, “INHIBITORS OF BRUTONS TYROSINE KINASE” (Pharmacyclics LLC, priority 2015, published 2021).
